The values that follow come from patent US10391095B2, “DNA-PK inhibitors” (Vertex Pharmaceuticals Incorporated, priority 2012, dated 2019).

A word on the Ki: it is the dissociation constant of the complex between target and ligand, obtained from inhibition or displacement.

Each structure is given as a SMILES string.

This experiment deals with DNA-PK (Homo sapiens, UniProt P78527). In words: DNA-PK inhibition assay (radiometric, 33P-ATP). It counts as biochemical. As to conditions: 100 μM ATP, competitive tight-binding fit. The gist of the method:
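Approx. 6 nM DNA-PK with 10 µg/mL sheared dsDNA, 0.8 mg/mL peptide substrate and 100 µM 33P-ATP in HEPES pH 7.5, 10 mM MgCl2; 45 min, phosphoric acid quench. Phosphopeptide captured on filter plates and counted by scintillation; Ki from a competitive tight-binding model fit.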

`CNC(=O)c1ccnc2c([C@H](C)CNc3cc(-c4ccc(O)nc4)ncn3)cccc12` [Compound 799]: the Ki is less than 30 nM.
Then `CC(CNc1cc(-c2ccc(N3CCN(C)CC3)nc2)ncn1)c1ccccc1OC(F)F` (centres unmarked) [Compound 63], with less than 30 nM.
Then `COc1ncc(-c2cc(NC[C@@H](C)c3ccnc4c3OCCO4)ncn2)cc1CO` [Compound 550], with less than 30 nM; and `CNC(=O)c1ccnc2c([C@H](C)CNc3cc(-c4ccc(CO)s4)ncn3)cccc12` [Compound 860], with less than 30 nM; and `CNc1ncc(-c2cc(NC[C@@H](C)c3ccnc4c3OCCO4)ncn2)cn1` [Compound 462, (S)—N^6-(2-(2,3-dihydro-[1,4]dioxino[2,3-b]pyridin-8-yl)propyl)-N^2′-methyl-[4,5′-bipyrimidine]-2′,6-diamine], with less than 30 nM.
Then `CNC(=O)c1ccnc2c([C@H](C)CNc3cc(-c4ccc5c(c4)CNC5=O)ncn3)cccc12` [Compound 758], with less than 30 nM.
For `Cc1ccc(-c2cc(NCC(C)c3ccccc3OC3CCCC3)ncn2)cn1` (centres unmarked) [Compound 241], the Ki was less than 30 nM.
Then `CNC(=O)c1ccnc2c([C@H](C)CNc3cc(-c4cnc5c(c4)CCCO5)ncn3)cccc12` [Compound 793], with less than 30 nM; and `C[C@H](CNc1cc(-c2ccc(N)nc2)ncn1)c1ccnc2c1OCC2` [Compound 594], with less than 30 nM.
On to `CC(CNc1cc(-c2cnc3c(cnn3C3CCN(C)CC3)c2)ncn1)c1ccccc1O` (centres unmarked) [Compound 151], for which the Ki is less than 30 nM.
Take `Cc1ccc(-c2cc(NCC(C)c3cnccc3OC3CC3)ncn2)cn1` (centres unmarked) [Compound 165]: the inhibition constant (Ki) is less than 30 nM.
`C=C(C)CNc1ccc(-c2cc(NC[C@@H](C)c3ccc(C(=O)NC)cc3OC)ncn2)cn1` [Compound 389] yielded a Ki of less than 30 nM.
The result for `COc1cc(C(N)=O)ccc1C(C)CNc1cc(-c2ccc(C)nc2)ncn1` (centres unmarked) [Compound 122] reads less than 30 nM; that for `CNC(=O)c1cc(OC)c(C(C)CNc2cc(-c3ccc(C)nc3)ncn2)cn1` (centres unmarked) [Compound 376], less than 30 nM; that for `CNC(=O)c1ccnc2c([C@H](C)CNc3cc(-c4ccc(C(C)=O)cc4)ncn3)cccc12` [Compound 590], less than 30 nM.
Turning to `CNC(=O)c1ccnc2c([C@H](C)CNc3cc(-c4ccc(F)cc4)ncn3)cccc12` [Compound 684], the inhibition constant Ki is less than 30 nM.
In the case of `CNC(=O)c1ccnc2c([C@H](C)CNc3cc(-c4cncc(N5CCOCC5)c4)ncn3)cccc12` [Compound 912], the Ki is less than 30 nM.
The result for `CNC(=O)c1ccc(C(C)CNc2cc(-c3ccc(OCCS(C)(=O)=O)nc3)ncn2)c(OC)c1` (centres unmarked) [Compound 325] reads less than 30 nM; that for `COc1ccccc1[C@H](C)CNc1cc(-c2ccnc(NCCSC)c2)ncn1` [Compound 210], less than 30 nM; that for `CNC(=O)c1ccnc2c([C@H](C)CNc3cc(-c4ccc(N(C)CCC(C)(C)O)nc4)ncn3)cccc12` [Compound 717], less than 30 nM.
`C[C@H](CNc1cc(-c2cnc3ccccc3c2)ncn1)c1ccnc2c1OCCO2` [Compound 559] showed an inhibitory constant (Ki) of less than 30 nM.
Then `Cc1ccc(-c2cc(NC[C@@H](C)c3cccc4nccnc34)ncn2)cn1` [Compound 445], with less than 30 nM.
Then `CNC(=O)c1ccc(C(C)CNc2cc(-c3ccc4c(c3)c(C)nn4C3COC3)ncn2)c(OC)c1` (centres unmarked) [Compound 279], with less than 30 nM; and `COc1nc(N)ncc1[C@H](C)CNc1cc(-c2ccc(C)nc2)ncn1` [Compound 475], with less than 30 nM; and `CCOc1cc(F)ccc1[C@H](C)CNc1cc(-c2ccc(N3CCN(C)CC3)nc2)ncn1` [Compound 120], with less than 30 nM.
Compound `CNC(=O)c1ccnc2c([C@H](C)CNc3cc(-c4ccc(NCc5nc6ccccc6[nH]5)nc4)ncn3)cccc12` [Compound 710] yielded a Ki of less than 30 nM.
`CNC(=O)c1ccc(C(C)CNc2cc(-c3cnc4c(cnn4CCO)c3)ncn2)c(OC)c1` (centres unmarked) [Compound 153] displayed a Ki of less than 30 nM.
In turn, `CNC(=O)c1c(F)cnc2c([C@H](C)CNc3cc(-c4cn[nH]c4)ncn3)cccc12` [Compound 785] registered a Ki of less than 30 nM.
Then `CNC(=O)c1ccc([C@H](C)CNc2cc(-c3ccc(N(C)C)nc3)ncn2)c(OC)c1` [Compound 359], with less than 30 nM; and `CNC(=O)c1ccnc2c([C@H](C)CNc3cc(-c4ccc(OC5COC5)cc4)ncn3)cccc12` [Compound 748], with less than 30 nM; and `CNC(=O)c1ccnc2c([C@H](C)CNc3cc(-c4ccc(C(=O)NC5CC5)cc4)ncn3)cccc12` [Compound 752], with less than 30 nM.
Consider `CNC(=O)c1ccnc2c([C@H](C)CNc3cc(-c4ccc(C)cc4F)ncn3)cccc12` [Compound 805], for which the Ki was less than 30 nM.
`COc1cc(-c2cc(NC[C@@H](C)c3ccnc4c3OCC4)ncn2)cnc1OC` [Compound 595] came in with a Ki of less than 30 nM.
Consider `CCNC(=O)Cn1ncc2cc(-c3cc(NCC(C)c4ccc(C(=O)NC)cc4OC)ncn3)cnc21` (centres unmarked) [Compound 238], for which the Ki was less than 30 nM.
The result for `CNC(=O)c1ccnc2c([C@H](C)CNc3cc(-c4ccc(C)s4)ncn3)cccc12` [Compound 839] reads less than 30 nM; that for `CNC(=O)c1ccnc2c([C@H](C)CNc3cc(-c4ccc(C(C)OC)cc4)ncn3)cccc12` (some centres unmarked) [Compound 811], less than 30 nM; that for `CNC(=O)c1ccnc2c([C@H](C)CNc3cc(-c4cnc(OC)c(Cl)c4)ncn3)cccc12` [Compound 949], less than 30 nM.
The result for `CC(CNc1cc(-c2cnc3c(cnn3CCO)c2)ncn1)c1ccnc2c1OCCO2` (centres unmarked) [Compound 444] reads less than 30 nM; that for `CONC(=O)c1ccc(C(C)CNc2cc(-c3ccc(C)nc3)ncn2)c(OC)c1` (centres unmarked) [Compound 157], less than 30 nM; that for `COCCn1ncc2cc(-c3cc(NCC(C)c4cnccc4OC4CC4)ncn3)cnc21` (centres unmarked) [Compound 176], less than 30 nM.
Take `CN1CCN(c2ccc(-c3cc(NCCc4ccccc4OC4CC4)ncn3)cn2)CC1` [Compound 87]: the Ki was less than 30 nM.
The result for `CNC(=O)c1ccnc2c([C@H](C)CNc3cc(-c4cnc5c(c4)OCCO5)ncn3)cccc12` [Compound 935] reads less than 30 nM; that for `CCNc1ccc(-c2cc(NC[C@@H](C)c3ccnc4cccnc34)ncn2)cn1` [Compound 514], less than 30 nM; that for `CNC(=O)c1ccc(C(C)CNc2cc(-c3cnc4c(cnn4CC(=O)OC)c3)ncn2)c(OC)c1` (centres unmarked) [Compound 273], less than 30 nM.
`COc1ccccc1[C@H](C)CNc1cc(-c2ccc(NCC#N)nc2)ncn1` [Compound 202] returned an inhibitory constant (Ki) of less than 30 nM.
Then `CNC(=O)c1ccnc2c([C@H](C)CNc3cc(-c4ccc(N5CCN6C(=O)OCC6C5)nc4)ncn3)cccc12` (single isomer, unassigned) [Compound 731], with less than 30 nM; and `COc1cc(C(N)=O)ccc1C(C)CNc1cc(-c2ccc(N3CCN(C(C)=O)CC3)nc2)ncn1` (centres unmarked) [Compound 131], with less than 30 nM; and `CNC(=O)c1ccnc2c([C@H](C)CNc3cc(-c4ccc(N5CCC(C(C)(C)O)CC5)nc4)ncn3)cccc12` [Compound 734], with less than 30 nM.
Regarding `CNC(=O)c1ccc([C@H](C)CNc2cc(-c3cn(C4COC4)c4ncccc34)ncn2)c(OC)c1` [Compound 481], the Ki was less than 30 nM.
Compound `COc1sccc1C(C)CNc1cc(-c2cnc3c(cnn3CC3CC3)c2)ncn1` (centres unmarked) [Compound 266] had a Ki of less than 30 nM.
The result for `COc1ccccc1CCNc1cc(-c2cnc3c(ccn3CC3CCOCC3)c2)ncn1` [Compound 41] reads less than 30 nM.
Then `CNCCN(C)c1ccc(-c2cc(NC[C@@H](C)c3cccc4c(C(=O)NC)ccnc34)ncn2)cn1` [Compound 706], with less than 30 nM; and `CNC(=O)c1ccnc2c([C@H](C)CNc3cc(-c4cccnc4)ncn3)cccc12` [Compound 612], with less than 30 nM.
In turn, `CNC(=O)c1ccnc2c([C@H](C)CNc3cc(-c4cnc(OC)s4)ncn3)cccc12` [Compound 779] showed a Ki of less than 30 nM.
Then `COc1cc(N)ncc1C(C)CNc1cc(-c2ccc(N3CCN(C(C)=O)CC3)nc2)ncn1` (centres unmarked) [Compound 345], with less than 30 nM; and `COCCn1ncc2cc(-c3cc(NC[C@@H](C)c4ccccc4OC)ncn3)cnc21` [Compound 139], with less than 30 nM; and `CNC(=O)c1ccnc2c([C@H](C)CNc3cc(-c4cnc(OC5CCC5)nc4)ncn3)ccc(F)c12` [Compound 982], with less than 30 nM.
In turn, `CCNc1ncc(-c2cc(NC[C@@H](C)c3cccc4c(C(=O)NC)c(F)cnc34)ncn2)cn1` [Compound 978] showed an inhibitory constant (Ki) of less than 30 nM.
On to `CNC(=O)c1ccnc2c([C@H](C)CNc3cc(-c4ccc(OC)cc4)ncn3)cccc12` [Compound 682], for which the Ki was less than 30 nM.
Then `CNC(=O)c1c(F)cnc2c([C@H](C)CNc3cc(-c4ccnc(C5CCC5)c4)ncn3)cccc12` [Compound 919], with less than 30 nM; and `Cc1ccc(-c2cc(NCC(C)c3ccnc4c3OCC4)ncn2)cn1` (centres unmarked) [Compound 289], with less than 30 nM; and `CNC(=O)c1ccnc2c([C@H](C)CNc3cc(-c4ccc(N5C[C@@H]6CCN(C)[C@@H]6C5)nc4)ncn3)cccc12` [Compound 720], with less than 30 nM.
The result for `CNC(=O)c1ccnc2c([C@H](C)CNc3cc(-c4cnc5c(c4)COC5)ncn3)ccc(F)c12` [Compound 967] reads less than 30 nM; that for `CNC(=O)c1ccnc2c([C@H](C)CNc3cc(-c4ccc(C(=O)NCCO)cc4)ncn3)cccc12` [Compound 753], less than 30 nM.
`CNC(=O)c1ccnc2c([C@H](C)CNc3cc(-c4cnc(C)c(C)c4)ncn3)cccc12` [Compound 870] had a Ki of less than 30 nM.
The result for `COc1ccccc1CCNc1cc(-c2cnc3c(cnn3C)c2)ncn1` [Compound 42] reads less than 30 nM.
The compound `CNC(=O)c1ccnc2c([C@H](C)CNc3cc(-c4cnc(C(C)C)nc4)ncn3)ccc(F)c12` [Compound 854] showed a Ki of less than 30 nM.
Then `CCOc1ccccc1CCNc1cc(-c2ccc(N3CCN(CCO)CC3)nc2)ncn1` [Compound 94], with less than 30 nM.
